Measurements as given in patent publication US20060014712A1, “Controlled delivery of therapeutic compounds” (CeMines, Inc., priority 2004, published 2006).

Key:
Dct/Trp2 promoter [1] = assay: Transient CAT assay, Dct/Trp2 proximal promoter-CAT construct in SK-MEL-28; format: cell-based, human; conditions: CPP concentration 10 μM
Method: (§1) SOX10 and MITF interact with the proximal promoter of Dct/Trp2 gene and induces its activity (Ludwig A. et al., FEBS Lett. 556 (1-3):236-244 (2004)). Thus, a Dct/Trp2 proximal promoter reporter construct was used to analyze effect of mimicking peptides on promoter activity using transient CAT assay.
(§2) Methods. Human melanoma cell lines SK-MEL-28 and WM 266-4 were obtained from the American Tissue Culture Collection (ATCC) and were cultured according to recommendations of ATCC (DMEM, 10% FCS, penicillin+streptomycin). Dct/Trp2 proximal promoter-CAT construct (Ludwig et al., supra) was used in all experiments.
(§3) Cells were transfected by using FuGene reagent (Roche Molecular Biochemicals) according to manufacturer's instructions. Freeze-thaw lysates of cells collected 48 h after the transfection were assayed for CAT activity as described (Pothier, F. et al., DNA Cell Biol. 11(1):83-90 (1992)). At least two different DNA preparations were tested for each plasmid. To normalize the transfection efficiencies, cells were cotransfected with pON260 expressing β-galactosidase (Spaete, R. R. and Mocarski, E. S., J. Virol. 54(3):817-24 (1985); Spaete, R. R. and Mocarski, E. S., J. Virol. 56(1):13543 (1985)). All the CAT activities were normalized to total protein and β-galatosidase activity.
(§4) Following transfection, cells were grown in 6 well plates, each treatment in triplicates. Peptides were added to the media and media was changed every day during the 7 day experiment. CPP concentration was 10 μM.

Dct/Trp2 promoter [2] = assay: Transient CAT assay, Dct/Trp2 proximal promoter-CAT construct in WM 266-4; format: cell-based, human; conditions: CPP concentration 10 μM
Method: as §1, §2, §3, §4

B16 [3] = assay: Cell counting after 7 day peptide treatment; format: cell-based, mouse; conditions: CPP mimicking peptides, conc 10 µM, start count 10
Method: The ability to block interaction of MITF, SOX10 and STAT3 with active transcriptional complex and inhibit proliferation and stimulate apoptosis of melanoma cells were tested on human melanoma cell lines SK-MEL-28 and WM 266-4, and mouse melanoma cell line B16. Methods. Human melanoma cell lines SK-MEL-28 and WM 2664 and mouse melanoma cell line B16 were obtained from the American Tissue Culture Collection (ATCC). Cells were cultured according to recommendations of ATCC (DMEM, 10% FCS, penicillin+streptomycin) and used in experiments after two passages in the laboratory. Cells were grown in 24 well plates, each treatment in triplicates. Cells were plated 16 hours prior treatments started. Peptides were added to the media, and media was changed every day during 7 day experiment. […] Cells were precipitated and resuspended in 100 μl of PBS, and 5 μl were removed for counting

B16 [4] = assay: WST-1 test (mitochondrial activity); format: cell-based, mouse; conditions: CPP mimicking peptides, conc 10 µM, untreated = 1
Method: Methods. Human melanoma cell lines SK-MEL-28 and WM 2664 and mouse melanoma cell line B16 were obtained from the American Tissue Culture Collection (ATCC). Cells were cultured according to recommendations of ATCC (DMEM, 10% FCS, penicillin+streptomycin) and used in experiments after two passages in the laboratory. Cells were grown in 24 well plates, each treatment in triplicates. Cells were plated 16 hours prior treatments started. Peptides were added to the media, and media was changed every day during 7 day experiment. […]

B16 melanoma = assay: Mouse tumor xenograft model, peptide membrane patch on skin melanoma; format: in vivo; conditions: patch immersed in 100 μM peptide solution, start = 100
Method: The effect of modified mimicking peptides was analyzed by inducing melanomas in mouse skin by grafting suspension of melanoma cells. […] Tumor diameter was measured 1, 2, 3, 5, 7 days after treatmet started.
Methods. Mouse melanoma cell line B16 was cultured as described above, and approximately 5×10^6 cells were injected subcutaneously into the left and right limbs of three C57BL/6JOIaHsd mice.
Administration. Cellulose membrane was immersed in a solution of peptides (100 μM). Size of tumor was measured 1, 2, 3, 5 and 7 days following patch treatment. At the same time new patch was applied. All experiments were done in triplicates (3 animals per group).

Human keratinocytes [5] = assay: Apoptosis, Annexin V-Cy3 Apoptosis Kit; format: cell-based; conditions: keratinocyte, modified peptides, conc 10 µM
Human keratinocytes [6] = assay: WST-1 test (mitochondrial activity); format: cell-based; conditions: keratinocyte; modified peptides; conc 10 µM; untreated = 1
Method: Methods. Human melanoma cell lines SK-MEL-28 and WM 266-4 were obtained from the American Tissue Culture Collection (ATCC) and were cultured according to recommendations of ATCC (DMEM, 10% FCS, penicillin+streptomycin). Human keratinocytes were obtained from Clonetics and cultured according to manufacturers protocol. Cells were used in experiments after two passages in the laboratory. Cells were grown in 24 well plates, each treatment in triplicates. Cells were plated 16 hours prior treatments started. Peptides were added to the media, and media was changed every day during 7 day experiment. […] WST-1 test was performed to measure mitochondrial activity, which can also be used as a measure of cell number.

Human keratinocytes [7] = assay: Cell counting after 7 day peptide treatment; format: cell-based; conditions: keratinocyte, modified peptides, conc 10 µM, start count 10
Method: Methods. Human melanoma cell lines SK-MEL-28 and WM 266-4 were obtained from the American Tissue Culture Collection (ATCC) and were cultured according to recommendations of ATCC (DMEM, 10% FCS, penicillin+streptomycin). Human keratinocytes were obtained from Clonetics and cultured according to manufacturers protocol. Cells were used in experiments after two passages in the laboratory. Cells were grown in 24 well plates, each treatment in triplicates. Cells were plated 16 hours prior treatments started. Peptides were added to the media, and media was changed every day during 7 day experiment. CPP concentration was 10 μM. For cell counting, cells were trypsinized (0.25% Trypsin, 2 mM EDTA) in Ca, Mg free PBS. Cells were precipitated and resuspended in 100 μl of PBS, and 5 μl were removed for counting.

Row | Sequence | Dct/Trp2 promoter activity (CAT assay) (Dct/Trp2 promoter [1]) | Dct/Trp2 promoter activity (CAT assay) (Dct/Trp2 promoter [2]) | Cell Count 7 d (B16 [3]) | WST-1 7 d (B16 [4]) | tumor size change (%) 1 d (B16 melanoma; 1 d, B16 s.c. in C57BL/6 mice) [%] | tumor size change (%) 2 d (B16 melanoma; 2 d) [%] | tumor size change (%) 3 d (B16 melanoma; 3 d) [%] | tumor size change (%) 5 d (B16 melanoma; 5 d) [%] | tumor size change (%) 7 d (B16 melanoma; 7 d) [%] | Apoptosis 7 d/% (Human keratinocytes [5]) [%] | WST-1 7 d (Human keratinocytes [6]) | Cell Count 7 d (Human keratinocytes [7])
1 | RPKKRKVRRRFNINDRIKELGTLIPKSNDPDMRWN [MITF-int1] | suppress Dct/Trp2 promoter activity significantly | suppress Dct/Trp2 promoter activity significantly | 63 | – | – | – | – | – | – | – | – | –
2 | RPKKRKVRRRVKRPMNAFMVWAQAARRKLADQY [SOX10-int1] | suppress Dct/Trp2 promoter activity significantly | suppress Dct/Trp2 promoter activity significantly | 72 | 0.88 | – | – | – | – | – | – | – | –
3 | TTGGSSPQGLEAKRPKKRKVRRRFNINDRIKELGTLIPKSNDPDMRWN [MITF-int1M] | – | – | – | – | 112 | 135 | 150 | 170 | 210 | 5 | 0.93 | 38
